Data: patent US20100190737A1, “COMPOSITIONS COMPRISING INOSINE AND OROTIC ACID AND METHODS OF USE THEREOF FOR THE TREATMENT OF CERTAIN HEART CONDITIONS AND ENHANCEMENT OF WORK CAPACITY” (NUTRITIONAL RESEARCH GROUP LLC, priority 2009, published 2010)

Key:
[1] = system: chinchilla rabbits with experimental myocardial infarction; test: Experimentally-induced myocardial infarction (coronary artery ligation); type: in vivo, rabbit; details: for NN of Animals With Necrosis: of 10 animals; for EKG Q: oral 100 mg/kg BW of each ingredient daily
Procedure: Histological, light microscopic methods of investigation have been employed to study the zone of necrosis, perinecrotic zone and myocardium regions spaced from the time of infarction by 7 and 14 days after the infarction event. Dynamic electrocardiographic observation over the animals was carried out during the first day and during the following 7 and 14 days. The study of the total cross-sectional patterns of a rabbit's heart has made it possible to precisely define these zones. The first Group of 10 animals was sham-operated without treatment (Group I, positive control-Intact, no MI). […] Group II animals were without treatment (negative control-MI Control).

[2] = system: rats with experimental aortic stenosis; test: Short term (7 day) experimental aortic stenosis: heart weight and swimming to exhaustion; type: in vivo, rat; details: EAS rats; for Heart Weight: intragastric daily
Text: There are two 7 day experiments in this portion of the study; a preliminary 7 day study with 54 rats in 9 groups (6 rats per group) to determine optimal dosage levels for the separate inosine or potassium orotate ingredients for farther experimentation by determination of maximal heart weight development and work capacity; and then a study with 30 rats in 5 groups (6 rats per group) using the optimal single ingredient dosage levels for comparison with the results of a composition of the ingredients. All compounds were administered intragastrically through a tube after being dissolved in approximately 1 ml of water.
A single control group received a sham operation, while the rest of the groups received experimental aortic stenosis (“EAS”) operations (all according to Beznak in Journal Physiol. (Lond.) 120.23P, 1953 as modified by Kogan, Bull eksper. Biol. Med., 26:112, 1961 and then the other 13 groups received various treatments and dosages of inosine or potassium orotate or a composition of the two ingredients after the optimal inosine and potassium orotate dosages were determined. All animals were tested at the beginning and end of the experiment for swimming to exhaustion times with a 7.5% body weight load attached to their tails.
Sach compound, i.e., inosine and potassium orotate, was administered at different doses and the level of heart hypertrophy and work capacity was observed. Each of the compounds was evaluated in four doses: 12.5 mg/kg, 25 mg/kg, 50 mg/kg and 100 mg/kg body weight. Six animals were used in each group for inosine [4 groups] and potassium orotate [4 groups] plus the one control group (sham operated, no treatment); 54 animals in total.
Thirty white rats were divided into 5 groups (6 animals in each group). Group I was a sham-operated control group, Group II animals with experimental aortic stenosis but were untreated, Groups III, IV & V animals, all with experimental aortic stenosis received by an intragastric tube each day, either inosine (25 mg/kg body weight), potassium orotate (50 mg/kg body weight) or an composition of inosine (25 mg/kg body weight) plus potassium orotate (50 mg/kg body weight), respectively.

mice = test: Short term (14 day) work capacity: swimming lengths within 30 minutes, hepatic glycogen; type: in vivo, mouse
Procedure: Seventy two animals (mice) were divided into 12 groups of 6 animals each; a control group (untreated) and 11 test groups that were intragastrically administered varying daily doses of inosine, potassium orotate or an inosine plus potassium orotate combination (the “combination”) for 14 days. […] The swimming exercise consisted of forcing the animals to perform repetitive swimming in a three meter long channel until exhaustion. The level of exhaustion was determined by a count of the number of swimming lengths which each animal did within 30 minutes. A lower number of swimming lengths indicated a greater level of exhaustion, whereas a higher number of lengths indicated a greater work capacity.

[3] = seventh day, inosine 25 mg/kg BW, potassium orotate 50 mg/kg BW, alone or together
[4] = seventh day, inosine 25 mg/kg BW, potassium orotate 50 mg/kg BW, alone or together, listed as Inosine

OC[C@H]1O[C@@H](n2cnc3c(O)ncnc32)[C@H](O)[C@@H]1O [inosine]
Thickness of Left Ventricular Wall ([1]; Day 7): 5.2 ± 0.72 mm | EKG R ([1]; Day 7, 100 mg/kg BW each): 4.1 ± 0.30 mm | NN of Animals With Necrosis ([1]; Day 7, MI control 10): 5 | EKG Q ([1]; Day 7): 1.1 ± 0.03 mm | EKG QRS ([1]; Day 14): 0.068 ± 0.003 s | EKG R ([1]; Day 14): 4.3 ± 0.28 mm | Thickness of Left Ventricular Wall ([1]; Day 14): 5.6 ± 0.21 mm | NN of Animals With Necrosis ([1]; Day 14, MI control 3): 0 | EKG Q ([1]; Day 14): 0.8 ± 0.02 mm | reduction in necroses ([1]; administered individually, 100 mg/kg): 50% | hemorrhages or infiltration in the infarction zone ([1]; by the fourteenth day): virtually had no hemorrhages or infiltration in the infarction zone | restoration of EKG readings ([1]; by the seventh experimental day): nearly a complete restoration of the voltage of EKG waves and of the systolic index | swimming time ([2]; day 7, 12.5 mg/kg intragastrically, EAS control 15±5.0, sham 62±5.0): 18 ± 2.0 min | swimming time ([2]; day 7, 25 mg/kg): 28 ± 3.0 min | swimming time ([2]; day 7, 50 mg/kg): 29 ± 3.0 min | swimming time ([2]; day 7, 100 mg/kg): 27.0 ± 3.0 min | relative heart weight ([2]; seventh day, 12.5 mg/kg, EAS control 400±8.9, sham 300±5.0): 410±9.0 mg/100 g. body weight | relative heart weight ([2]; seventh day, 25 mg/kg): 440±12 mg/100 g. body weight | relative heart weight ([2]; seventh day, 50 mg/kg): 442±12 mg/100 g. body weight | relative heart weight ([2]; seventh day, 100 mg/kg): 440±10 mg/100 g. body weight | swimming time [2, 3]: 31 ± 3.0 min | Heart Weight [2, 3]: 450±12 mg/100 gr BW | Heart Weight [2, 4]: 450 ± 12 mg/100 gr BW | swimming time [2, 4]: 31 ± 3.0 min | Swimming lengths (mice; 12.5 mg/kg BW daily for 14 days intragastrically, within 30 minutes, control 24.9): 33.9 | increase in number of swimming lengths (mice; 12.5 mg/kg/body weight daily, 14 days): 35.4% | Swimming lengths (mice; 25 mg/kg BW, 14 days): 46.4 | increase in number of swimming lengths (mice; 25 mg/kg/body weight daily, 14 days): 85.6% | Swimming lengths (mice; 50 mg/kg BW, 14 days): 39.6 | increase in number of swimming lengths (mice; 50 mg/kg/body weight daily, 14 days): 58.5% | Swimming lengths (mice; 100 mg/kg BW, 14 days): 31.1 | increase in number of swimming lengths (mice; 100 mg/kg/body weight daily, 14 days): 24.3% | mean decrease of hepatic glycogen stores during the swimming exercise (mice; controls 67.5% from baseline): 24.5% | increased hepatic glycogen content (mice; inosine 25 mg/kg, potassium orotate 50 mg/kg, or combination): 21%
